Test results reported in US11000033B2, “Ketone or oxime compound, and herbicide” (NISSAN CHEMICAL CORPORATION, priority 2014, dated 2021).

Legend:
Assay type in all cases: in vivo
[1] = system: Lolium multiflorum Lam.; assay: Test Example 5: herbicidal effect by foliage application, plastic box (symbol K); conditions: 320 g/ha, 3 weeks after application
How it was run: (§1)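 After sowing into sterilized diluvial soil and growing two weeks under glass at 25° C. to 30° C., seedlings receive a uniform foliar spray of diluted emulsion. Damage is judged visually three weeks on.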

[2] = system: Scirpus juncoides; assay: Test Example 2: herbicidal activity, application during weed generation in submerged conditions (symbol B); conditions: Table 23; application herbicide amount 320 g/ha; grade 0-5 by criteria of Test Example 1
How it was run: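 Weeds emerging under flooded conditions were treated with compound formulated as an emulsion and diluted with water to the intended herbicide amount, poured onto the surface of 4 cm standing water. Seeds had been co-sown in alluvial soil; plants grew at 25° C. to 30° C. and were assessed after 3 weeks.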

[3] = system: rice; assay: Test Example 4: effect on crop by soil treatment (symbol b); conditions: for b: directly sowed rice plant, effect on crop grade: application herbicide amount 320 g/ha
How it was run: (§2)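 Crop seeds, among them rice, wheat, beet and rapeseed, were sown in sterilized diluvial soil and covered with about 1.5 cm of soil. Boxes were kept in a greenhouse at 25° C. to 30° C. for plant growth.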

[4] = system: Alopecurus myosuroides; assay: Test Example 4: herbicidal effect by soil treatment (symbol J)
How it was run: (§3)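 Seeds were sown in sterilized diluvial soil, covered with about 1.5 cm of soil, and the soil surface was sprayed with a water-diluted emulsion of the compound at a predetermined rate. Plants grew in a greenhouse at 25° C. to 30° C.; effects were scored visually 3 weeks after application.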

[5] = system: wheat; assay: Test Example 5: effect on crop by foliage application, plastic box (symbol e); conditions: 320 g/ha, 3 weeks after application
How it was run: (§4)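 Crop seed is sown alongside grass and broadleaf weed species in spots in sterilized diluvial soil, then covered to a depth of about 1.5 cm. Plants grow in a greenhouse kept at 25° C. to 30° C.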

[6] = system: rapeseed; assay: Test Example 4: effect on crop by soil treatment (symbol g); conditions: for g: rapeseed, effect on crop grade: application herbicide amount 320 g/ha
How it was run: as §2

[7] = system: transplanted rice plant; assay: Test Example 1: effect on crop, application before weed generation in submerged conditions (symbol a); conditions: application herbicide amount 320 g/ha
How it was run: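 Alluvial soil pots flooded to 4 cm water, sown with Echinochloa oryzacola, Scirpus juncoides and Monochoria vaginalis, then transplanted with 2.5 leaf stage rice seedlings; pre-emergence application. Greenhouse 25° C. to 30° C.; scored 0–5 by herbicidal ratio 3 weeks after application.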

[8] = system: corn; assay: Test Example 5: effect on crop by foliage application, plastic box (symbol c); conditions: 320 g/ha, 3 weeks after application
How it was run: as §4

[9] = system: Veronica persica; assay: Test Example 5: herbicidal effect by foliage application, plastic box (symbol R); conditions: 320 g/ha, 3 weeks after application
How it was run: as §1

[10] = system: corn; assay: Test Example 4: effect on crop by soil treatment (symbol c); conditions: for c: corn, effect on crop grade: application herbicide amount 320 g/ha
How it was run: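 Steps: fill box with sterilized diluvial soil; sow seed spot-like; cover with ~1.5 cm soil; grow in greenhouse (25° C. to 30° C.).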

[11] = system: Digitaria ciliaris; assay: Test Example 4: herbicidal effect by soil treatment (symbol F)
How it was run: as §3

[12] = system: beet; assay: Test Example 5: effect on crop by foliage application, plastic box (symbol f); conditions: 320 g/ha, 3 weeks after application
How it was run: as §4

[13] = system: Veronica persica; assay: Test Example 4: herbicidal effect by soil treatment (symbol R); conditions: application herbicide amount 320 g/ha
How it was run: as §3

[14] = system: Alopecurus myosuroides; assay: Test Example 5: herbicidal effect by foliage application, plastic box (symbol J); conditions: 320 g/ha, 3 weeks after application
How it was run: as §1

[15] = application herbicide amount 320 g/ha

| SMILES | K: Lolium multiflorum Lam., herbicidal effect grade [1] | Herbicidal effect grade, B: Scirpus juncoides [2] | b: directly sowed rice plant, effect on crop grade [3] | J: Alopecurus myosuroides, herbicidal effect grade [4, 15] | e: wheat, effect on crop grade [5] | g: rapeseed, effect on crop grade [6] | Effect grade on crop, a: transplanted rice plant [7] | c: corn, effect on crop grade [8] | R: Veronica persica, herbicidal effect grade [9] | c: corn, effect on crop grade [10] | F: Digitaria ciliaris, herbicidal effect grade [11, 15] | f: beet, effect on crop grade [12] | R: Veronica persica, herbicidal effect grade [13] | J: Alopecurus myosuroides, herbicidal effect grade [14] | b: directly sowed rice plant, effect grade on crop ([3]; 320 g/ha) | J: Alopecurus myosuroides, herbicidal effect grade ([4]; 320 g/ha) | g: rapeseed, effect grade on crop ([6]; 320 g/ha) | c: corn, effect grade on crop ([10]; 320 g/ha) | F: Digitaria ciliaris, herbicidal effect grade ([11]; 320 g/ha) |
| --- | --- | --- | --- | --- | --- | --- | --- | --- | --- | --- | --- | --- | --- | --- | --- | --- | --- | --- | --- |
| Cc1cc(C)c(C2=C(O)CC(CC(=O)C(C)(C)C)C2=O)c(C)c1 (centres unmarked) [2-022] | 5 (Herbicidal ratio of 90% or more (almost completely withered)) | 0 (Herbicidal ratio of 5% or lower (almost no effect)) | 4 (Herbicidal ratio of 70% or higher and lower than 90%) | 0 (Herbicidal ratio of 5% or lower (almost no effect)) | 0 (Herbicidal ratio of 5% or lower (almost no effect)) | 0 (Herbicidal ratio of 5% or lower (almost no effect)) | 3 (Herbicidal ratio of 40% or higher and lower than 70%) | 3 (Herbicidal ratio of 40% or higher and lower than 70%) | 0 (Herbicidal ratio of 5% or lower (almost no effect)) | 0 (Herbicidal ratio of 5% or lower (almost no effect)) | 0 (Herbicidal ratio of 5% or lower (almost no effect)) | 0 (Herbicidal ratio of 5% or lower (almost no effect)) | 0 (Herbicidal ratio of 5% or lower (almost no effect)) | 3 (Herbicidal ratio of 40% or higher and lower than 70%) |  |  |  |  |  |
| CON=C(C)CC1CC(O)=C(c2c(C)cc(-c3cccc(Cl)c3)cc2C)C1=O (mixture of isomers) [6-034] | 4 (Herbicidal ratio of 70% or higher and lower than 90%) | 5 (Herbicidal ratio of 90% or more (almost completely withered)) | 2 (Herbicidal ratio of 20% or higher and lower than 40%) | 5 (Herbicidal ratio of 90% or more (almost completely withered)) | 0 (Herbicidal ratio of 5% or lower (almost no effect)) | 1 (Herbicidal ratio of 5% or higher and lower than 20%) | 5 (Herbicidal ratio of 90% or more (almost completely withered)) | 5 (Herbicidal ratio of 90% or more (almost completely withered)) | 3 (Herbicidal ratio of 40% or higher and lower than 70%) | 1 (Herbicidal ratio of 5% or higher and lower than 20%) | 5 (Herbicidal ratio of 90% or more (almost completely withered)) | 0 (Herbicidal ratio of 5% or lower (almost no effect)) | 4 (Herbicidal ratio of 70% or higher and lower than 90%) | 5 (Herbicidal ratio of 90% or more (almost completely withered)) |  |  |  |  |  |
| CCC(=O)CCC1CC(OC)=C(c2c(C)cc(C)cc2C)C1=O (centres unmarked) [5-002] | 0 (Herbicidal ratio of 5% or lower (almost no effect)) | 0 (Herbicidal ratio of 5% or lower (almost no effect)) | 0 (Herbicidal ratio of 5% or lower (almost no effect)) | 0 (Herbicidal ratio of 5% or lower (almost no effect)) | 0 (Herbicidal ratio of 5% or lower (almost no effect)) |  | 0 (Herbicidal ratio of 5% or lower (almost no effect)) | 0 (Herbicidal ratio of 5% or lower (almost no effect)) |  | 0 (Herbicidal ratio of 5% or lower (almost no effect)) | 0 (Herbicidal ratio of 5% or lower (almost no effect)) | 0 (Herbicidal ratio of 5% or lower (almost no effect)) | 0 (Herbicidal ratio of 5% or lower (almost no effect)) | 0 (Herbicidal ratio of 5% or lower (almost no effect)) |  |  |  |  |  |
| CON=C(C)CC1CC(O)=C(c2c(C)cc(C(=O)OC)cc2C)C1=O (centres unmarked) [6-023] | 5 (Herbicidal ratio of 90% or more (almost completely withered)) |  | 5 (Herbicidal ratio of 90% or more (almost completely withered)) | 4 (Herbicidal ratio of 70% or higher and lower than 90%) | 3 (Herbicidal ratio of 40% or higher and lower than 70%) | 3 (Herbicidal ratio of 40% or higher and lower than 70%) | 4 (Herbicidal ratio of 70% or higher and lower than 90%) | 3 (Herbicidal ratio of 40% or higher and lower than 70%) | 1 (Herbicidal ratio of 5% or higher and lower than 20%) | 1 (Herbicidal ratio of 5% or higher and lower than 20%) | 1 (Herbicidal ratio of 5% or higher and lower than 20%) |  | 0 (Herbicidal ratio of 5% or lower (almost no effect)) | 5 (Herbicidal ratio of 90% or more (almost completely withered)) |  |  |  |  |  |
| CC#Cc1cc(C)c(C2=C(O)CC(CC(C)=NOC)C2=O)c(CC)c1 (mixture of isomers) [6-006] | 4 (Herbicidal ratio of 70% or higher and lower than 90%) | 5 (Herbicidal ratio of 90% or more (almost completely withered)) | 5 (Herbicidal ratio of 90% or more (almost completely withered)) | 5 (Herbicidal ratio of 90% or more (almost completely withered)) | 5 (Herbicidal ratio of 90% or more (almost completely withered)) | 4 (Herbicidal ratio of 70% or higher and lower than 90%) | 5 (Herbicidal ratio of 90% or more (almost completely withered)) | 1 (Herbicidal ratio of 5% or higher and lower than 20%) |  | 5 (Herbicidal ratio of 90% or more (almost completely withered)) | 5 (Herbicidal ratio of 90% or more (almost completely withered)) |  | 2 (Herbicidal ratio of 20% or higher and lower than 40%) | 5 (Herbicidal ratio of 90% or more (almost completely withered)) |  |  |  |  |  |
| CON=C(C)CC1CC(OC(=O)Cc2ccc(OC)cc2)=C(c2c(C)cc(C)cc2C)C1=O (centres unmarked) [1-156] | 5 (Herbicidal ratio of 90% or more (almost completely withered)) | 5 (Herbicidal ratio of 90% or more (almost completely withered)) |  |  | 5 (Herbicidal ratio of 90% or more (almost completely withered)) |  | 5 (Herbicidal ratio of 90% or more (almost completely withered)) | 4 (Herbicidal ratio of 70% or higher and lower than 90%) | 4 (Herbicidal ratio of 70% or higher and lower than 90%) |  |  | 3 (Herbicidal ratio of 40% or higher and lower than 70%) |  | 5 (Herbicidal ratio of 90% or more (almost completely withered)) | 5 (Herbicidal ratio of 90% or more (almost completely withered)) | 5 (Herbicidal ratio of 90% or more (almost completely withered)) | 4 (Herbicidal ratio of 70% or higher and lower than 90%) | 1 (Herbicidal ratio of 5% or higher and lower than 20%) | 5 (Herbicidal ratio of 90% or more (almost completely withered)) |
